Measured values as given in patent US20240041796A1, “ANTI-INFLAMMATORY COMPOSITION COMPRISING N-BENZYL-N-METHYLDECAN-1-AMINE OR A DERIVATIVE THEREOF AS AN ACTIVE INGREDIENT” (PUSAN NATIONAL UNIVERSITY INDUSTRY-UNIVERSITY COOPERATION …, priority 2022, published 2024).

Experiments:
[1] = test system: NF-KB P65 protein; assay: NF-KB P65 distribution in cytoplasm and nucleus of LPS-treated THP-1 cells, immunoblotting; type: cell-based, human; details: FIG. 2D
Text: Moreover, the mononuclear THP-1 cell line treated with lipopolysaccharide (LPS) and BMDA/DMMA under the same conditions was partitioned into cytoplasmic and nuclear portions. Distribution of NF-KB P65 protein in the cytoplasm and nucleus was examined based on immunoblotting.

[2] = test system: Balb/C mice; assay: DNCB-induced atopic dermatitis model, cosmetic cream applied to the skin; type: in vivo, mouse; details: for DNCB-induced atopic dermatitis (level of dermatitis): cosmetic cream (0.3% active; Lidomax ointment 0.15%) applied to the back for 2 weeks, 9C; for DNCB-induced atopic dermatitis (level of dermatitis) / hair regrowth on the skin: FIG. 9A; for size of the (inguinal) lymph node: cosmetic cream (Lidomax ointment 0.15%) applied for 2 weeks, FIG. 9B, 9D; for hair regrowth on the skin: cosmetic cream applied for 2 weeks; for thickness of the dermis: hematoxylin-eosin stained skin sections, FIG. 10A-B; for phosphorylation level of JNK in skin / phosphorylation level of NF-KB in skin / phosphorylation level of p38MAPK in skin: immunoblotting, FIG. 11D; for phosphorylation level of JNK in skin / phosphorylation level of NF-KB in skin / phosphorylation level of p38MAPK in skin / concentration of IgE in the blood: vs control group; for amount of COX2 transcriptome in skin / amount of IL-1β transcriptome in skin / amount of IL-6 transcriptome in skin / amount of TNF-α transcriptome in skin / amount of iNOS transcriptome in skin: qRT-PCR, vs DNCB control, FIG. 11A-C; for concentration of IgE in the blood: serum ELISA, 2 weeks of treatment, FIG. 10D; for invasion of mast cells into the dermis: toluidine-blue staining, FIG. 10C
Experimental: Wed added 0.3 g of olive wax to 2 mL of soybean oil (Sigma-Aldrich) in a glass tube (15 ml), and put the tube in a 75° C. water-bath, and performed a double boiling thereon to melt the olive wax for 30 minutes while vortexing the tube at 10 minute interval. Under the same conditions, 7.7 ml of purified water was put into a 75° C. water-bath and heated the same for 30 minutes. Next, 7.5 ml of purified water was poured into the tube containing the olive wax and the mixture was stirred well via vortexing. Then, […] (0.3%) of each of BMDA and derivatives thereof (FMJ-G0, FMJ-G4, FMJ-G1, FMJ-G2, FMJ-G3) as synthesized in Examples 1 and 3 were added to the mixture, followed by stirring. The reaction product was cooled in ice and prepared in the form of a cosmetic cream.
In order to induce atopic dermatitis using 5-week-old Balb/C mice, hair on the back of the mouse was removed therefrom, and after one day, a 0.5% solution in which DNCB (2,4-dinitrochlorobenzne) is mixed with acetone and olive oil (3:1) was prepared, and then was applied thereon for 3 consecutive days by 150 μL per each day. Thereafter, the solution of the same concentration was applied to the back area from which the hair was removed twice a week and this process continued for 2 weeks. Further, to alleviate atopic dermatitis induced in this way, the cosmetic cream containing each of BMDA (FMJ-G0) and the derivatives thereof (FMJ-G4, FMJ-G1, FMJ-G2, FMJ-G3) of the present disclosure as prepared above was applied to the back of rats with the induced atopic dermatitis for 2 weeks, and then, changes in skin inflammation were examined.
The experimental results of FIG. 10A and FIG. 10B was obtained as follows as in FIG. 9. The skin tissue was removed from the back of the mouse in the group, and was placed fixedly in 10% formaldehyde for 48 hours, and paraffin pieces were made, and the pieces were thinly sliced so as to have a thickness of 4 μm and was subjected to hematoxylin-esoin staining. Then, whether the damaged skin tissue was recovered by each of BMDA (FMJ-G0) and DMMA (FMJ-G4) was examined using an optical microscope equipped with a Leica application (Leica Microsystems, Switzerland).
To this end, the atopic dermatitis is induced in FIG. 9, and on 2 weeks since the treatment with BMDA (FMJ-G0) and DMMA (FMJ-G4), blood (500 ul) is collected from the hepatic veins of the rats of the above groups, and left at room temperature for 30 minutes. Then, serum was separated and prepared via centrifugation, and then, the IgE concentration related to the allergic reaction was measured through ELISA using the serum thus prepared.
Anti-mouse IgE (Pharmingen, CA, USA) was diluted with PBS (pH 7.4) on a 96-well plate, 100 μL thereof was coated on each 96-well plate, and then left at 4° C. for 12 hours. The plate was washed with PBS containing 0.05% tween. Blocking was performed thereon for 1 hour with PBS containing 1% BSA, 5% sucrose, and 0.05% NaN3. Washing was performed thereon several times using washing buffer. Recombinant IgE and serum were added thereto, and reaction occurred at 37° C. for 2 hours, and each well was washed again, and biotinylated IgE (Pharmingen, CA, USA) was added thereto. Reaction occurred for 2 hours. After washing the well, avidin peroxidase was added thereto and reaction occurred at 37° C. for 30 minutes. Then, the well was washed and then, ABTS solution as a substrate was added thereto. Absorbance was measured at 405 nm using ELISA reader (Epoch2, Biotek, VT, USA).
FIG. 11 show data obtained as follows. The atopic dermatitis was induced as described in FIG. 9, and on 2 weeks since the treatment with BMDA or DMMA (FMJ-G0/G4), a portion of the skin tissue of the rats in the groups were put in Trisol solution and the tissue was crushed in a sonicator. […]

[3] = test system: human THP-1 monocytic cell line; assay: ELISA of inflammatory cytokines in supernatant of LPS-treated THP-1 cells; type: cell-based; details: LPS 1 μg/ml, FIG. 2C
Experimental: Each of BMDA (FMJ-G0) or DMMA (FMJ-G4) was added to a culture medium at concentrations of […], and 1 μM in a 6-well plate. The human THP-1 monocytic cell line (5×10^5 cells/well) was cultured therein for 3 hours. Each well was treated with lipopolysaccharide at a concentration of 1 μg/ml. After 1 hour, centrifugation was performed to obtain a supernatant which was used in an ELISA for inflammatory cytokine evaluation. Cell lysate was added to the collected THP-1 cells for immunoblotting.

In the case of `CCCCCCCCCCN(C)Cc1ccccc1` [BMDA, N-benzyl-N-methyldecan-1-amine], the “NF-KB expression and migration in the nucleus” value [1] is reported as “inhibited”, the “activity of the transcription factor NF-KB” value [1] is reported as “inhibited” and the “DNCB-induced atopic dermatitis (level of dermatitis)” value [2] is reported as “significantly alleviated”. The “size of the (inguinal) lymph node” value [2] was “the same as that of the spleen”, the “hair regrowth on the skin” value [2] was “observed” and the “thickness of the dermis” value [2] was “significantly reduced”. The “phosphorylation level of JNK in skin” value [2] was “significantly lowered”, the “phosphorylation level of NF-KB in skin” value [2] was “significantly lowered” and the “phosphorylation level of p38MAPK in skin” value [2] was “significantly lowered”. For the same compound, the “amount of COX2 transcriptome in skin” value [2] was “markedly lowered”, the “amount of IL-1β transcriptome in skin” value [2] was “markedly lowered” and the “amount of IL-6 transcriptome in skin” value [2] was “markedly lowered”. For the same compound, the “amount of TNF-α transcriptome in skin” value [2] was “markedly lowered”, the “amount of iNOS transcriptome in skin” value [2] was “markedly lowered” and the “concentration of IgE in the blood” value [2] was “significantly lower”. The “invasion of mast cells into the dermis” value [2] was “prevents”, the “production of IL-1β” value [3] was “inhibited” and the “production of TNF-α” value [3] was “inhibited”.
With `CCCCCCCCCCN(C)Cc1ccc(OC)cc1` [DMMA, Decyl-(4-methoxy-benzyl)-methyl-amine] the “NF-KB expression and migration in the nucleus” value [1] was “inhibited”, the “activity of the transcription factor NF-KB” value [1] was “inhibited” and the “DNCB-induced atopic dermatitis (level of dermatitis)” value [2] was “significantly alleviated”. For the same compound, the “size of the (inguinal) lymph node” value [2] was “the same as that of the spleen”, the “hair regrowth on the skin” value [2] was “observed” and the “thickness of the dermis” value [2] was “significantly reduced”. For the same compound, the “phosphorylation level of JNK in skin” value [2] was “significantly lowered”, the “phosphorylation level of NF-KB in skin” value [2] was “significantly lowered” and the “phosphorylation level of p38MAPK in skin” value [2] was “significantly lowered”. For the same compound, the “amount of COX2 transcriptome in skin” value [2] was “markedly lowered”, the “amount of IL-1β transcriptome in skin” value [2] was “markedly lowered” and the “amount of IL-6 transcriptome in skin” value [2] was “markedly lowered”. For the same compound, the “amount of TNF-α transcriptome in skin” value [2] was “markedly lowered”, the “amount of iNOS transcriptome in skin” value [2] was “markedly lowered” and the “concentration of IgE in the blood” value [2] was “significantly lower”. For the same compound, the “invasion of mast cells into the dermis” value [2] was “prevents”, the “production of IL-1β” value [3] was “inhibited” and the “production of TNF-α” value [3] was “inhibited”.
